Some targets named below: AURKB (Homo sapiens, UniProt Q96GD4); EGFR(L858R) (Homo sapiens, UniProt P00533, L858R); MARK1 (Homo sapiens, UniProt Q9P0L2); RET (Homo sapiens, UniProt P07949); MARK2 (Homo sapiens, UniProt Q7KZI7); PIM1 (Homo sapiens, UniProt P11309); DAPK1 (Homo sapiens, UniProt P53355); TIE1 (Homo sapiens, UniProt P35590); SGK3 (Homo sapiens, UniProt Q96BR1); FGFR3 (Homo sapiens, UniProt P22607); LATS1 (Homo sapiens, UniProt O95835); MAP4K2 (Homo sapiens, UniProt Q12851); WEE1 (Homo sapiens, UniProt P30291); DYRK1A (Homo sapiens, UniProt Q13627); CDK2 (Homo sapiens, UniProt P24941); ACVR2B (Homo sapiens, UniProt Q13705).

What all share (experiment): biochemical
Design in all cases: KINOMEscan active-site competition binding, percent of control (100 = no competition)
Common to all, as to conditions: competition binding, percent control

Another test concerns the target T1, YES (Homo sapiens, UniProt P07947).
T1 construct: gene YES1

Test [1] addresses EGFR(L747-S752del, P753S) (Homo sapiens, UniProt P00533, DEL747-752/P753S).
A further test deals with T2, PYK2 (Homo sapiens, UniProt Q14289).
T2 construct: gene PTK2B

For the next test, the target named is T3, SIK (Homo sapiens, UniProt P57059).
T3 construct: gene SIK1

Another test addresses T4, ZAK (Homo sapiens, UniProt Q9NYL2).
T4 construct: gene MAP3K20

The target of test [2] is EGFR(L747-E749del, A750P) (Homo sapiens, UniProt P00533, A750P/DEL747-749).
For test [3], the target named is T5, ABL1(F317I)-nonphosphorylated (Homo sapiens, UniProt P00519, F317I).
T5 construct: nonphosphorylated
T5 sequence (P00519 whole entry F317I): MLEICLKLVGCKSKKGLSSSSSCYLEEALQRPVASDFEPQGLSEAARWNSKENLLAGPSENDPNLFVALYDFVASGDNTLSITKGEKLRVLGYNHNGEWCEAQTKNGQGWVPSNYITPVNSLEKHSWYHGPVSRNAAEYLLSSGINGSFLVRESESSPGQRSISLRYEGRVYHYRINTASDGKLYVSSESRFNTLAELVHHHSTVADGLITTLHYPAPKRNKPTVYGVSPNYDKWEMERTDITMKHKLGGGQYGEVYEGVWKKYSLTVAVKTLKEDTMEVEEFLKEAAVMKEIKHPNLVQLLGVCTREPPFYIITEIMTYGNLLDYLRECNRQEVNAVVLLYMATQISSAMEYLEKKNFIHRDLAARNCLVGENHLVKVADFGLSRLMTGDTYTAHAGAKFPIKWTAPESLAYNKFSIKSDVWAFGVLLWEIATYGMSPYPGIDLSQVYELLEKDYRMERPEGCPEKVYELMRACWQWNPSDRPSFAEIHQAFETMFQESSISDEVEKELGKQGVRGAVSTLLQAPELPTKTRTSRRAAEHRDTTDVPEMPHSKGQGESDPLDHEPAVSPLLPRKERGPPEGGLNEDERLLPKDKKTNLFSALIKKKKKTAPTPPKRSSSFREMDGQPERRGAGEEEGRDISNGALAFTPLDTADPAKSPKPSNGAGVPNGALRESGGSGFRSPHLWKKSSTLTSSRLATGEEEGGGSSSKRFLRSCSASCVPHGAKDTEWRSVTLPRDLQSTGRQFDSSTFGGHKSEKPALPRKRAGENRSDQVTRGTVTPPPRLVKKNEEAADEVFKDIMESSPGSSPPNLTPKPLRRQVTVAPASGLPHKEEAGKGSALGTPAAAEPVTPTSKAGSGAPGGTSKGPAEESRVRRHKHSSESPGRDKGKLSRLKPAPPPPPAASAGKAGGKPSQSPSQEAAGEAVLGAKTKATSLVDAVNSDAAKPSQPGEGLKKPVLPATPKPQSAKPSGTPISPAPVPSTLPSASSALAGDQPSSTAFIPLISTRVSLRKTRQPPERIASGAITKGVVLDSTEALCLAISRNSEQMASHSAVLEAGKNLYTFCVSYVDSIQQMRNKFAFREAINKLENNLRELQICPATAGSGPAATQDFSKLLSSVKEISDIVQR

Sequence of EGFR(L747-E749del, A750P) (P00533 with tags, fused parts or gaps DEL747-749/A750P): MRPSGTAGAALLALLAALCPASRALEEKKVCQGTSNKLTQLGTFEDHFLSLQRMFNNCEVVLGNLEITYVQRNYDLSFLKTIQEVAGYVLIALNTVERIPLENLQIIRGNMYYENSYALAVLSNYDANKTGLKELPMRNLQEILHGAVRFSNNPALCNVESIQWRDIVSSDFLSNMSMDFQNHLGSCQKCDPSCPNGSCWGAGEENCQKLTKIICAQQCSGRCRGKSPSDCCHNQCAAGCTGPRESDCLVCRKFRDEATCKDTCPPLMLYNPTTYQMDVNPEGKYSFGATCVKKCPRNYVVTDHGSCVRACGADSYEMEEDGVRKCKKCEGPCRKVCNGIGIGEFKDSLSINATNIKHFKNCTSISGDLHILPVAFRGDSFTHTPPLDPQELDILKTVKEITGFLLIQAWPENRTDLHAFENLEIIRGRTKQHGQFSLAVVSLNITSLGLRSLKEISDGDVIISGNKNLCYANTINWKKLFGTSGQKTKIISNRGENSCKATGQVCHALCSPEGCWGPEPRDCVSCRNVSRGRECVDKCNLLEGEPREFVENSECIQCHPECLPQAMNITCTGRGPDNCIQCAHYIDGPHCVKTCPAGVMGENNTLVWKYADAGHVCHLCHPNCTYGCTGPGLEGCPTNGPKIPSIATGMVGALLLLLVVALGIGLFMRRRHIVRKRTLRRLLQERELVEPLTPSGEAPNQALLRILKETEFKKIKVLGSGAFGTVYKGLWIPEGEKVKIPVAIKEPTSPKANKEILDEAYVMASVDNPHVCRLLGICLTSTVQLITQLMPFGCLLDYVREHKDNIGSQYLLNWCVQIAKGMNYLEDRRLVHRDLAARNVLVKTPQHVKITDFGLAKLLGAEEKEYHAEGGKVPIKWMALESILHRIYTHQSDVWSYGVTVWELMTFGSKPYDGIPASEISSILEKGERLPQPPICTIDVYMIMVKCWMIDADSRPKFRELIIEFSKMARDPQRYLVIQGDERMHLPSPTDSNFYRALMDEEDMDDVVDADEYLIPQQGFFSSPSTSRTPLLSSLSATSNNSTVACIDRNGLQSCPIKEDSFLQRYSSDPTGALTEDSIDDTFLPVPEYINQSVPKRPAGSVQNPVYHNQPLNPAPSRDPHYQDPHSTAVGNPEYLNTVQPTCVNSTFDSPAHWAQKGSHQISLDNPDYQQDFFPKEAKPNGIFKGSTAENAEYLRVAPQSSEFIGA
Sequence of TIE1 (P35590 whole entry): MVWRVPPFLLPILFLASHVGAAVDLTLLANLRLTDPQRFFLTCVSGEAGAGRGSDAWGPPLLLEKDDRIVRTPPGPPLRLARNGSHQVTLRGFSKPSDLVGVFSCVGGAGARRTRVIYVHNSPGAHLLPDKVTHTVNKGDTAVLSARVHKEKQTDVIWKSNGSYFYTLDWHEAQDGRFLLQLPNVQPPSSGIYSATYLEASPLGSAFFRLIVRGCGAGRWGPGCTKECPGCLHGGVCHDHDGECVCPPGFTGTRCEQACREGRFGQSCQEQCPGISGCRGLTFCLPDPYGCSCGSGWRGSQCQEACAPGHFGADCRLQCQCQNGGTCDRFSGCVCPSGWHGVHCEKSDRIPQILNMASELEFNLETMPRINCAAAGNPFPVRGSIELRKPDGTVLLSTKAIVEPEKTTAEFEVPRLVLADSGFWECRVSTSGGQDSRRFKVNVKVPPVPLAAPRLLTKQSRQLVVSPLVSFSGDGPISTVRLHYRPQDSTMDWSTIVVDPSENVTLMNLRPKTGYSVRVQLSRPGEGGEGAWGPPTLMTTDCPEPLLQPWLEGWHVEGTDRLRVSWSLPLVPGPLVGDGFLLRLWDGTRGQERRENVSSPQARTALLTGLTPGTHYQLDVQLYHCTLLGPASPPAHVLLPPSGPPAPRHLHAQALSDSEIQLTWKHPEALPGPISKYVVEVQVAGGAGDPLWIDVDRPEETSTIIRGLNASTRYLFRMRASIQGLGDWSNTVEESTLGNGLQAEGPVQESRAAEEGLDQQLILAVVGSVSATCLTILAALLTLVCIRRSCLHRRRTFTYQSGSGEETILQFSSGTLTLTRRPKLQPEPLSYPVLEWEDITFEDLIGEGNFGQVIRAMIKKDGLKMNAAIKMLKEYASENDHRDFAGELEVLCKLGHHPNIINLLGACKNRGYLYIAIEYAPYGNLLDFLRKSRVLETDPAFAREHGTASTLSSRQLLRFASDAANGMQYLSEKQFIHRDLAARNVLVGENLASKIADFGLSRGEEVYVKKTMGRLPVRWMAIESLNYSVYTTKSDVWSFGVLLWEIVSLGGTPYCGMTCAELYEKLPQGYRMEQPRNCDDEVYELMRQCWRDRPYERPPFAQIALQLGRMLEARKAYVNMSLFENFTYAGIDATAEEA
T1 sequence (P07947 whole entry): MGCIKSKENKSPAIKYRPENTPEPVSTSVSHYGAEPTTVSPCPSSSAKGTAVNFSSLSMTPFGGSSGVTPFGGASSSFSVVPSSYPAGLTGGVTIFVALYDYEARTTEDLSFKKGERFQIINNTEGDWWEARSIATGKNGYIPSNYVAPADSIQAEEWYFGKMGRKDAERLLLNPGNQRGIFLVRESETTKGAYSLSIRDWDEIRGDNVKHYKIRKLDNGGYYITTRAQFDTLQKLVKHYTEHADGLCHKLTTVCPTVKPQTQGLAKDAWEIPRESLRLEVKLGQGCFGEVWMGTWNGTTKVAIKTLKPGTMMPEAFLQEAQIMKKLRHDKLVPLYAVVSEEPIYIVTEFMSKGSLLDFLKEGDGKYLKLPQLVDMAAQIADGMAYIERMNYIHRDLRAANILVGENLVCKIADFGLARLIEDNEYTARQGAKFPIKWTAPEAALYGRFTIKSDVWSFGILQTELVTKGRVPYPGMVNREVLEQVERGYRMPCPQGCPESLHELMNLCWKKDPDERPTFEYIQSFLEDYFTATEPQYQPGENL
Sequence of WEE1 (P30291 whole entry): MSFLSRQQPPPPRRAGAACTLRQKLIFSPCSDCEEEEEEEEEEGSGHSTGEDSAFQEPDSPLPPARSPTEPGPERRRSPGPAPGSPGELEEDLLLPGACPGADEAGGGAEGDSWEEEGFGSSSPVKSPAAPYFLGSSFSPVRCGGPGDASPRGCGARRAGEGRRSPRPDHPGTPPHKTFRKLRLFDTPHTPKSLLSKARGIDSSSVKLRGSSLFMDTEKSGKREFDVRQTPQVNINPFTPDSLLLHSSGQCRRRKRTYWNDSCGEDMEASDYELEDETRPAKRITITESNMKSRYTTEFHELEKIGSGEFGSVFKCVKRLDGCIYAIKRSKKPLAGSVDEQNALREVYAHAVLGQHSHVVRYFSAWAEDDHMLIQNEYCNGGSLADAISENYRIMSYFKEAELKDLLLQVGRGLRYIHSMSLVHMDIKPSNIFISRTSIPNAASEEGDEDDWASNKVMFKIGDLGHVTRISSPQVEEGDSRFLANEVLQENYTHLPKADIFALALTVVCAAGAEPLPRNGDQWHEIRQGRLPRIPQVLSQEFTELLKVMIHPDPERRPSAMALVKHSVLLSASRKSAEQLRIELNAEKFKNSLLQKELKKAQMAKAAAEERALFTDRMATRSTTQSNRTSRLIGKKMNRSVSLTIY
Sequence of AURKB (Q96GD4 whole entry): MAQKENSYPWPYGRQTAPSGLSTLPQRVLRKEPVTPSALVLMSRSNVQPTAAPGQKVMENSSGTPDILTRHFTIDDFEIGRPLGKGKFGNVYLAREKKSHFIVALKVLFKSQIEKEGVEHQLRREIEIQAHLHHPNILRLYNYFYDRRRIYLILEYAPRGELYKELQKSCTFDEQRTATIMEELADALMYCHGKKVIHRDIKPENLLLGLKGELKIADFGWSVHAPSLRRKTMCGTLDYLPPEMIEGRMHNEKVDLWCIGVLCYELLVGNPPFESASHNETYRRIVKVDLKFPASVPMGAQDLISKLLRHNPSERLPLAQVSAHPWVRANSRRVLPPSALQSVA

As for `COc1ccc(-c2cnccc2-c2cnc(NC(=O)C(C)C)s2)c(C(F)(F)F)c1` [CRT0105446, N-{5-[3-(4-Methoxy-2-trifluoromethyl-phenyl)-pyridin-4-yl]-hiazol-2-yl}-isobutyramide], the remaining binding at 10 µM is 99% on YES; 80% at AURKB; 76% at EGFR(L858R); 87% at MARK1; 87% at RET; 92% in [1]. The remaining binding at 10 µM at MARK2 came out at 63%; on PIM1, 96%; at PYK2 it was 100%; on DAPK1, 100%; on TIE1, 87%; at SGK3 it was 95%. Also, the remaining binding at 10 µM is 96% at FGFR3; 84% at SIK; 91% on LATS1; 100% on MAP4K2; 87% on WEE1; 100% on ZAK. Moreover, the remaining binding at 10 µM is 98% in test [2]; 76% at DYRK1A; 0.9% on CDK2; 100% in test [3]; 100% at ACVR2B.
As to `Cc1ccc(-c2cnccc2-c2cnc(Nc3ccc(O)cc3)s2)c(Cl)c1` [CRT0105950, 4-{5-[3-(2-Chloro-4-methyl-phenyl)-pyridin-4-yl]-thiazol-2-ylamino}-phenol], the remaining binding at 10 µM on YES was found to be 66%; at AURKB, 0.15%; at EGFR(L858R) it was 69%; at MARK1 it was 5.8%; on RET, 1.2%; in test [1] it was 66%. In addition, the remaining binding at 10 µM turned out to be 28% on MARK2; 76% on PIM1; 2.2% on PYK2; 82% on DAPK1; 16% at TIE1; 72% on SGK3. Besides, the remaining binding at 10 µM turned out to be 4.8% on FGFR3; 6.4% at SIK; 23% on LATS1; 81% at MAP4K2; 48% on WEE1; 9% on ZAK. Further, the remaining binding at 10 µM was 64% in test [2]; 30% at DYRK1A; 0.2% at CDK2; 93% in test [3]; 32% on ACVR2B.

Values taken from publication PMC4770715, “LIM kinase inhibitors disrupt mitotic microtubule organization and impair tumor cell proliferation” (Oncotarget, 2015).
